Test results published in the supplement of paper PMC10307832.

Experiments:
Assay in all cases: relative viability (nuclei count vs DMSO), 5 days (fraction); higher = more cells survive
[1] = test system: CAL-12T
In short: (§1)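 Each reported value is a median over duplicate plates. It expresses relative viability: treated-well nuclei count divided by vehicle-well nuclei count. Lung cancer cell lines in 1536-well plates were dosed by pin tool a day after seeding, alone with one drug or with a fixed anchor-drug dose plus five library-drug doses (not always all listed) in √10 steps, and nuclei were counted after 5 days.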

[2] = test system: NCI-H1650
In short: as §1

[3] = test system: NCI-H460
In short: as §1

[4] = test system: BEN
In short: as §1

[5] = test system: COR-L 105
In short: as §1

[6] = test system: PC-14
In short: as §1

[7] = test system: NCI-H661
In short: as §1

[8] = test system: LK-2
In short: as §1

[9] = test system: HCC-366
In short: as §1

[10] = test system: NCI-H3122
In short: as §1

[11] = test system: NCI-H1666
In short: as §1

[12] = test system: ABC-1
In short: as §1

[13] = test system: HARA
In short: as §1

[14] = test system: NCI-H727
In short: as §1

[15] = test system: EKVX
In short: as §1

[16] = test system: 201T
In short: as §1

[17] = test system: NCI-H1437
In short: as §1

[18] = test system: NCI-H2170
In short: as §1

[19] = test system: LOU-NH91
In short: as §1

[20] = test system: NCI-H2009
In short: as §1

[21] = test system: SW 900
In short: as §1

[22] = test system: NCI-H441
In short: as §1

Structure (SMILES): Cc1sc2c(c1C)C(c1ccc(Cl)cc1)=N[C@@H](CC(=O)OC(C)(C)C)c1nnc(C)n1-2 [JQ1] + O=C(CCCCCCC(=O)Nc1ccccc1)NO [Vorinostat] (partner 1 µM)
- relative viability ([1]; first compound 0.04 µM): 0.853
- relative viability ([1]; first compound 0.1265 µM): 0.838
- relative viability ([1]; first compound 0.4 µM): 0.685
- relative viability ([1]; first compound 1.265 µM): 0.238
- relative viability ([1]; first compound 4 µM): 0.217
- relative viability ([2]; first compound 0.04 µM): 0.6
- relative viability ([2]; first compound 0.1265 µM): 0.438
- relative viability ([2]; first compound 0.4 µM): 0.475
- relative viability ([2]; first compound 1.265 µM): 0.292
- relative viability ([2]; first compound 4 µM): 0.177
- relative viability ([3]; first compound 0.04 µM): 0.672
- relative viability ([3]; first compound 0.1265 µM): 0.621
- relative viability ([3]; first compound 0.4 µM): 0.18
- relative viability ([3]; first compound 1.265 µM): 0.0632
- relative viability ([3]; first compound 4 µM): 0.0462
- relative viability ([4]; first compound 0.04 µM): 0.503
- relative viability ([4]; first compound 0.1265 µM): 0.545
- relative viability ([4]; first compound 0.4 µM): 0.494
- relative viability ([4]; first compound 1.265 µM): 0.456
- relative viability ([4]; first compound 4 µM): 0.351
- relative viability ([5]; first compound 0.04 µM): 0.743
- relative viability ([5]; first compound 0.1265 µM): 0.773
- relative viability ([5]; first compound 0.4 µM): 0.621
- relative viability ([5]; first compound 1.265 µM): 0.338
- relative viability ([5]; first compound 4 µM): 0.338
- relative viability ([6]; first compound 0.04 µM): 0.787
- relative viability ([6]; first compound 0.1265 µM): 0.564
- relative viability ([6]; first compound 0.4 µM): 0.44
- relative viability ([6]; first compound 1.265 µM): 0.203
- relative viability ([6]; first compound 4 µM): 0.16
- relative viability ([7]; first compound 0.04 µM): 0.766
- relative viability ([7]; first compound 0.1265 µM): 0.809
- relative viability ([7]; first compound 0.4 µM): 0.677
- relative viability ([7]; first compound 1.265 µM): 0.493
- relative viability ([7]; first compound 4 µM): 0.456
- relative viability ([8]; first compound 0.04 µM): 0.301
- relative viability ([8]; first compound 0.1265 µM): 0.233
- relative viability ([8]; first compound 0.4 µM): 0.281
- relative viability ([8]; first compound 1.265 µM): 0.128
- relative viability ([8]; first compound 4 µM): 0.101
- relative viability ([9]; first compound 0.04 µM): 0.409
- relative viability ([9]; first compound 0.4 µM): 0.138
- relative viability ([9]; first compound 1.265 µM): 0.0461
- relative viability ([9]; first compound 4 µM): 0.042
- relative viability ([10]; first compound 0.04 µM): 1.01
- relative viability ([10]; first compound 0.1265 µM): 0.506
- relative viability ([10]; first compound 0.4 µM): 1.02
- relative viability ([10]; first compound 1.265 µM): 1.04
- relative viability ([10]; first compound 4 µM): 0.664
- relative viability ([11]; first compound 0.04 µM): 0.972
- relative viability ([11]; first compound 0.1265 µM): 0.944
- relative viability ([11]; first compound 0.4 µM): 0.988
- relative viability ([11]; first compound 1.265 µM): 0.823
- relative viability ([11]; first compound 4 µM): 0.788
- relative viability ([12]; first compound 0.04 µM): 0.963
- relative viability ([12]; first compound 0.1265 µM): 0.557
- relative viability ([12]; first compound 0.4 µM): 0.703
- relative viability ([12]; first compound 1.265 µM): 0.41
- relative viability ([12]; first compound 4 µM): 0.296
- relative viability ([13]; first compound 0.04 µM): 0.464
- relative viability ([13]; first compound 0.1265 µM): 0.514
- relative viability ([13]; first compound 0.4 µM): 0.396
- relative viability ([13]; first compound 1.265 µM): 0.347
- relative viability ([13]; first compound 4 µM): 0.301
- relative viability ([14]; first compound 0.04 µM): 1.47
- relative viability ([14]; first compound 0.1265 µM): 1.14
- relative viability ([14]; first compound 0.4 µM): 0.954
- relative viability ([14]; first compound 1.265 µM): 1.08
- relative viability ([14]; first compound 4 µM): 0.621
- relative viability ([15]; first compound 0.04 µM): 0.789
- relative viability ([15]; first compound 0.4 µM): 0.739
- relative viability ([15]; first compound 1.265 µM): 0.466
- relative viability ([15]; first compound 4 µM): 0.496
- relative viability ([16]; first compound 0.04 µM): 0.952
- relative viability ([16]; first compound 0.4 µM): 0.73
- relative viability ([16]; first compound 1.265 µM): 0.46
- relative viability ([16]; first compound 4 µM): 0.367
- relative viability ([17]; first compound 0.04 µM): 0.816
- relative viability ([17]; first compound 0.1265 µM): 0.736
- relative viability ([17]; first compound 0.4 µM): 0.686
- relative viability ([17]; first compound 1.265 µM): 0.395
- relative viability ([17]; first compound 4 µM): 0.34
- relative viability ([18]; first compound 0.04 µM): 0.866
- relative viability ([18]; first compound 0.1265 µM): 0.609
- relative viability ([18]; first compound 0.4 µM): 0.513
- relative viability ([18]; first compound 1.265 µM): 0.472
- relative viability ([18]; first compound 4 µM): 0.243
- relative viability ([19]; first compound 0.04 µM): 0.912
- relative viability ([19]; first compound 0.1265 µM): 0.718
- relative viability ([19]; first compound 0.4 µM): 0.442
- relative viability ([19]; first compound 1.265 µM): 0.388
- relative viability ([19]; first compound 4 µM): 0.402
- relative viability ([20]; first compound 0.04 µM): 0.701
- relative viability ([20]; first compound 0.1265 µM): 0.444
- relative viability ([20]; first compound 0.4 µM): 0.429
- relative viability ([20]; first compound 1.265 µM): 0.264
- relative viability ([20]; first compound 4 µM): 0.201
- relative viability ([21]; first compound 0.04 µM): 0.448
- relative viability ([21]; first compound 0.1265 µM): 0.611
- relative viability ([21]; first compound 0.4 µM): 0.332
- relative viability ([21]; first compound 1.265 µM): 0.174
- relative viability ([21]; first compound 4 µM): 0.157
- relative viability ([22]; first compound 0.04 µM): 0.64
- relative viability ([22]; first compound 0.1265 µM): 0.943
- relative viability ([22]; first compound 0.4 µM): 0.886
- relative viability ([22]; first compound 1.265 µM): 0.303
- relative viability ([22]; first compound 4 µM): 0.199
